IC50 data for 1 molecule are collected here from patent US20100160397A1, “OXAZOLE DERIVATIVES AND THEIR USE IN THE TREATMENT OF DIABETES AND OBESITY” (priority 2006, published 2010).

This assay addresses T1, human DGAT1 (Homo sapiens, UniProt O75907).
T1 construct: made in house; host or cells: sf9 insect cells (baculovirus), membrane fraction
T1 sequence (O75907 1-488): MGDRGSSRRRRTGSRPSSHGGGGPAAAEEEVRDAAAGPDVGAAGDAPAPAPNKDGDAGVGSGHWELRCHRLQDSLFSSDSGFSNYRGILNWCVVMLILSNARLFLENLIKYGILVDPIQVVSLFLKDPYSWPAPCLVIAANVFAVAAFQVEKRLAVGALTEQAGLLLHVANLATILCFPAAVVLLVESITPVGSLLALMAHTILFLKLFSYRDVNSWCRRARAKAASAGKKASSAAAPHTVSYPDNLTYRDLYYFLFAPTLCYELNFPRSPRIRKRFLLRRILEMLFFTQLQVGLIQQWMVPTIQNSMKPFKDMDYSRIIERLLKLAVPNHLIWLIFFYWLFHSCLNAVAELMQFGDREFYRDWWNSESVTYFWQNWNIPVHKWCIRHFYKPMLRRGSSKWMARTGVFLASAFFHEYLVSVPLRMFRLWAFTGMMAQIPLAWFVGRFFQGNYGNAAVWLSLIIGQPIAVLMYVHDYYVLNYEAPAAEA
As to the kind of experiment: Human Enzyme Assay (DGAT1 inhibition, 14C oleoyl CoA incorporation into triolein). The conditions noted are these: human DGAT1 expressed in insect cell (sf9) membranes; 30 μM 14C oleoyl coenzyme A, 30 minutes at room temperature. It is filed as biochemical. The method, then:
As indicated above, all of the compounds, and their corresponding pharmaceutically-acceptable salts, are useful in inhibiting DGAT1.
The in vitro assay to identify DGAT1 inhibitors uses human DGAT1 expressed in insect cell membranes as the enzyme source (Proc. Natl. Acad. Sci. 1998, 95, 13018-13023). Briefly, sf9 cells were infected with recombinant baculovirus containing human DGAT1 coding sequences and harvested after 48 h. Cells were lysed by sonication and membranes isolated by centrifuging at 28000 rpm for 1 h at 4° C. on a 41% sucrose gradient. The membrane fraction at the interphase was collected, washed, and stored in liquid nitrogen.
DGAT1 activity was assayed by a modification of the method described by Coleman (Methods in Enzymology 1992, 209, 98-102). Compound at 1-10 μM was incubated with 0.4 μg membrane protein, 5 mM MgCl2, and 10 0 μM 1,2 dioleoyl-sn-glycerol in a total assay volume of 200 μl in plastic tubes. The reaction was started by adding ^14C oleoyl coenzyme A (30 μM final concentration) and incubated at room temperature for 30 minutes. The reaction was stopped by adding 1.5 mL 2-propanol:heptane:water (80:20:2). Radioactive triolein product was separated into the organic phase by adding 1 mL heptane and 0.5 mL 0.1 M carbonate buffer pH 9.5. DGAT1 activity was quantified by counting aliquots of the upper heptane layer by liquid scintillography.

By IC50 is commonly meant the concentration at which inhibition is half-maximal. A higher IC50 goes with a need for much substance. As for `COC(=O)C[C@H]1CC[C@H](c2ccc(NC(=O)c3coc(Nc4ccc(F)c(F)c4)n3)cc2)CC1` [Example 2, Methyl trans-2-{4-[4-({2-[(3,4-difluorophenyl)amino]-1,3-oxazole-4-carbonyl}amino)phenyl]cyclohexyl}acetate], the IC50 worked out at 32 µM.
